Laboratory results taken from patent publication US7008949B2, “Heterocyclic compounds which inhibit leukocyte adhesion mediated by α4 integrins” (Elan Pharmaceuticals, Inc., priority 2003, dated 2006).
Values after ≈ are worked out from the molar mass of the structure shown.

Tests used:
[1] = target: T1, α4β1 Integrin (Homo sapiens, UniProt P05556+P13612); test: α4β1 Integrin Adhesion Assay: Jurkat cell adhesion to human plasma fibronectin; type: cell-based; settings: Jurkat cells
T1 construct: endogenous in cells; host or cells: Jurkat cells
Procedure: 96 well plates (Costar 3590 EIA plates) were coated with human fibronectin (Gibco/BRL, cat #33016-023) at a concentration of 10 μg/mL overnight at 4° C. The plates were then blocked with a solution of bovine serum albumin (BSA; 0.3%) in saline. Jurkat™ cells (maintained in log phase growth) were labeled with Calcein AM according to the manufacturer's instructions, and suspended at a concentration of 2×10^6 cells/mL in Hepes/Saline/BSA. The cells were then exposed to test and control compounds for 30 minutes at room temperature before transfer to individual wells of the fibronectin coated plate. Adhesion was allowed to occur for 35 minutes at 37° C. The wells were then washed by gentle aspiration and pipetting with fresh saline. Fluorescence associated with the remaining adherent cells was quantified using a fluorescence plate reader at EX 485/EM 530.
Cell cultures were prepared by first splitting the stationary phase Jurkat™ cells at 1:10 on day one, and 1:2 on day two to perform assay on day 3. The cells split 1:10 on day one were split 1:4 on day 3 for a day 4 assay.
The assay plates were prepared by first making a working solution of Gibco/BRL Human Fibronectin (cat # 33016-023) in PBS++, at 10 μg/mL.
A Costar 3590 EIA plate was then coated with 50 μL/well for 2 hours at room temperature (thought it can also be left overnight at 4° C.). Finally the plate was asperated and blocked with Hepes/Saline Buffer, 100 μL/well, for 1 hour at RT followed by washing three times with 150 μL of PBS++.
Compound dilutions were accomplished by preparing 1:3 serial dilutions of compounds as follows. For each plate (4 compounds/plate) 600 μL were added to 4 Bio-Rad Titertubes in a Titertube rack. Enough compound was added to each appropriate tube to give a 2× concentration using methods well known in the art. Using Falcon Flexiplates, 100 μL of Hepes/Saline buffer or human serum were added to rows B through G. A multi-channel pipetter set to 180 μL was used to with four tips spaced evenly the pipetter. Each set of four tubes was mixed 5 times and 180 μL of 2× compound was transferred to the first column of each compound dilution in Row B, leaving Row A empty. 180 μL were added to the other wells in Row A. Serial dilutions were performed down the plate by transferring 50 μL to the next dilution and mixing 5 times, changing tips each time after mixing. Dilutions were stopped at Row F. Row G had no compound present.
A 20 μg/mL solution in Hepes/Saline buffer or human serum, of 21/6 antibody was the positive control and was set aside in a reagent trough to add to cell suspension plate.
The cell staining was accomplished by first harvesting the log-phase Jurkat™ cells by centrifugation in 50 mL tubes (1100 rpm for 5 minutes). The cells were resuspended in 50 mL PBS++, spun, and resuspend in 20 mL PBS++. The cells were stained by adding 20 μL of Calcein AM for 30 minutes R.T. The volume was brought to 50 mL with Hepes/Saline buffer and the cells were counted, spun, and resuspend to 2×10^6 cells/mL in Hepes/Saline buffer or human serum.
The compounds were incubated using the following procedure. In a new flexiplate, 65 μL of stained cells were added to Rows B through H. Then 65 μL of 2× compounds were added to the appropriate rows following the plate setup and mixed 3×. 65 μL of 2×-21/6 antibody were added to Row H and mixed 3×. Finally the plate was incubated at room temperature for 30 minutes.
Fibronectin adhesion was measured using a fluorescent plate reader at EX 485/EM 530 after the following work up procedure. After incubation, the cells were mixed 3× and 100 μL were transferred to the Fibronectin coated plates and incubated at 37° C. for about 35 minutes. Each plate was washed, row by row, by gently pipetting 100 μL of R.T. PBS++ down the sides of the wells and turning the plate 90 degrees to aspirate. This procedure was repeated for a total of 3 washes. Each well was filled with 100 μL after washing by pipetting down the side of the well. […]

[2] = Cassette dosing and serum analysis for determination of oral bioavailability; type: in vivo, rat; settings: male SD rats, oral cassette of 6 compounds, total dose 10 mg/kg, plasma at 4, 8, 12 h
Procedure: The oral bioavailability was screened by dosing rats with a cassette, i.e. mixture of 6 compounds per dosing solution. The cassette included 5 test articles and a standard compound, for a total dose of 10 mg/kg. Each compound/test article was converted to the sodium salt with equimolar 1 N NaOH and dissolved in water at 2 mg/mL. The cassette was prepared by mixing equal volumes of each of the six solutions. The cassette dosing solution was mixed well and then the pH was adjusted to 7.5–9. The dosing solution was prepared the day before the study and stirred overnight at room temperature.
Male Sprague Dawley (SD) rats from Charles River Laboratories, 6–8 weeks old were used in this screen. Rats were quarantined for at least one day and had continuous access to food and water. On the night before the administration of the cassette, the rats were fasted for approximately 16 h.
Four SD rats were assigned in each cassette. A single dose of the dosing solution was administered orally to each rat. The dosing volume (5 mL/kg) and time were recorded and rats were fed 2 h after dosing.
Blood samples were collected via cardiac puncture at the following time points: 4 h, 8 h and 12 h. Immediately prior to blood collection, rats were anesthetized with CO2 gas within 10–20 seconds. After the 12-hour samples were collected, the rats were euthanized via CO2 asphyxiation followed by cervical dislocation.
Blood samples were kept in heparinized microtainer tubes under sub-ambient temperature (4° C.) before they were processed. Blood samples were centrifuged (10000 rpm for 5 minutes) and plasma samples were removed and stored in a −20° C. freezer until analyzed for drug levels. Drug levels in the plasma were analyzed using the following protocol for direct plasma precipitation.
The in vivo plasma samples were prepared in a 1.5 mL 96-well plate, by adding, in order, 100 μL of the test plasma, 150 μL of methanol, followed by vortexing for 10–20 seconds. 150 μL of 0.05 ng/μL of an Internal Standard in acetonitrile were added and vortexed for 30 seconds.
The standard curve samples were prepared in a 1.5 mL 96-well plate, by adding, in order, 100 μL of control mouse plasma, followed by 150 μL of methanol and vortexing for 10–20 seconds. 150 μL of 0.05 ng/μL of an Internal Standard in acetonitrile were added and vortexed for 30 seconds. The samples were spiked with 0–200 ng (10 concentrations) of the compound of interest in 50% methanol to obtain a standard curve range of 0.5 ng/mL–2,000 ng/mL. Again, the sample was vortexed for 30 seconds.
The samples were then spun for 20–30 minutes at 3000 rpm in an Eppendorf microfuge before 80–90% of supernatant was transferred into a clean 96-well plate. The organic solvent was then evaporated until the samples were dry (under N2 at 40° C./30–60 min (ZymarkTurbovap)).
The residue was then dissolved in […] mobile phase (50% CH3OH/0.1% TFA). LC/MS/MS was then run using a PE-Sciex API-3000 triple quadurpole mass spectrometer (SN0749707), Perkin-Elmer, Series200auto-sampler, and shimadzu 10A pump. Acquisition was done with PE-Sciex Analyst (v1.1) and data analysis and quantification were accomplished using PE-Sciex Analyst (v1.1). A 5–50 μL sample volume was injected onto a reverse phase ThermoHypersil DASH-18 column (Keystone 2.0×20 mm, 5 μm, PN: 8823025-701) using a mobile phase of 25% CH3OH, 0.1% TFA-100% CH3OH, 0.1% TFA. The run time was about 8 minutes at a flow rate of about 300 μL/minutes.
The Area Under the Curve (AUC) was calculated using the linear trapezoidal rule from t=0 to the last sampling time tx (see Handbook of Basic Pharmacokinetics, Wolfgang A. Ritschel and Gregory L. Kearns, 5th ed, 1999). AUC^0→tx═S((Cn+Cn+1)/2))·(tn+1−tn)[(μg/mL)h]
In the case of the cassette dosing paradigm, samples at 4, 8 and 12 h post extravascular dosing, the AUC was calculated from t=0 to t=12 h.

[3] = IC50, Cell Adhesion to Human Plasma Fibronectin (With Human Serum), with human serum
[4] = IC50, Cell Adhesion to Human Plasma Fibronectin (Without the Human Serum), without human serum

T1 sequence (P13612 34-1032): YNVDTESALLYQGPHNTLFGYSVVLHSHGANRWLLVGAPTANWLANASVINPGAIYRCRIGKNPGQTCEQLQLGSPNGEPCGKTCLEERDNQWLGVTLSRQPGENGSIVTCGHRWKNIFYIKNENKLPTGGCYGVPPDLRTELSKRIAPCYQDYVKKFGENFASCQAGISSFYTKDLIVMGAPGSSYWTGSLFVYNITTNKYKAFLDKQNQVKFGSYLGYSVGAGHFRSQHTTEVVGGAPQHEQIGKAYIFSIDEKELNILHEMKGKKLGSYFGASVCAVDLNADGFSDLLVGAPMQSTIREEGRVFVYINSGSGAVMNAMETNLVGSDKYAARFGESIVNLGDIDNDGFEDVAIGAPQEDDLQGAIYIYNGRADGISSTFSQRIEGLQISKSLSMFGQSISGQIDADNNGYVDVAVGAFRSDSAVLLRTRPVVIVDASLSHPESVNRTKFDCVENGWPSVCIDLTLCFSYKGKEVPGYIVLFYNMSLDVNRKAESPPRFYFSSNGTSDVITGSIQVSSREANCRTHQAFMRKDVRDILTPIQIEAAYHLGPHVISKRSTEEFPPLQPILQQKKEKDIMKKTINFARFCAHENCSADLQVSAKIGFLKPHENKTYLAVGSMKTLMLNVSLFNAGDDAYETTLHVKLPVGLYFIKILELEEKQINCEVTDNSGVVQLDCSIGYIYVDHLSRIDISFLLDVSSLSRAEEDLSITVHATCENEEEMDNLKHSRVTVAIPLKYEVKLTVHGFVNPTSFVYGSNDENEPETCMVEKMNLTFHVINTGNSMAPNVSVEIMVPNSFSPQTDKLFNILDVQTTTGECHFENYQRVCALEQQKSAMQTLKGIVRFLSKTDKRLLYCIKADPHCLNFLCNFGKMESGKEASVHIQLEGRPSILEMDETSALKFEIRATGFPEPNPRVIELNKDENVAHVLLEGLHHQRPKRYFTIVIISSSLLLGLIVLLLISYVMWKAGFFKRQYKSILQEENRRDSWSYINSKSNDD
T1 sequence (P05556 21-798): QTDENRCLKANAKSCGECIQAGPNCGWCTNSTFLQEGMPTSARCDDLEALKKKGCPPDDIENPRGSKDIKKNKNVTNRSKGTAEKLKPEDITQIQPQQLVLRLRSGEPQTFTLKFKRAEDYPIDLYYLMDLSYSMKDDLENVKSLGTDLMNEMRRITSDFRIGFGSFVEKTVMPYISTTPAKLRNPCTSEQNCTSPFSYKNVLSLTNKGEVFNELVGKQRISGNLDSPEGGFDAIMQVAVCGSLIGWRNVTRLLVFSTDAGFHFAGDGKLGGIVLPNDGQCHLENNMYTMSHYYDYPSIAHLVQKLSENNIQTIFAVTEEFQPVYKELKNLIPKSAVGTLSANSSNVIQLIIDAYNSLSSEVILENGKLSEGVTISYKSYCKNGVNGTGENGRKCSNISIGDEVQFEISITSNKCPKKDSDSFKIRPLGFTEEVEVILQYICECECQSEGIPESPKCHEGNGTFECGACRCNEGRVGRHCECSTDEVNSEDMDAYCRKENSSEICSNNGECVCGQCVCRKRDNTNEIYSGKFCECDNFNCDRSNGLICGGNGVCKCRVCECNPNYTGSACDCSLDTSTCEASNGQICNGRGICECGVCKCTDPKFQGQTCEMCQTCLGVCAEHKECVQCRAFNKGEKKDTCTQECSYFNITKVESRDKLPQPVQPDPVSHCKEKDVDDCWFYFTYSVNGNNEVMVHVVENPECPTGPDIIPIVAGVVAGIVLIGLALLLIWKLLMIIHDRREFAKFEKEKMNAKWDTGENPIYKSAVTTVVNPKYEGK

Compound | IC50 [1, 3] [µM] | IC50 [1, 4] [µM] | AUC (average AUC 0→12 h) [2] | IC50, Cell Adhesion to Human Plasma Fibronectin (With Human Serum) ([1]; with human serum) [µg/mL] | IC50, Cell Adhesion to Human Plasma Fibronectin (Without the Human Serum) ([1]; without human serum) [µg/mL]
CCN(CC)c1ncc(N(C(C)C)S(=O)(=O)c2ccc(Cl)cc2)c(N[C@@H](Cc2ccc(OC(=O)N(C)C)cc2)C(=O)O)n1 [Example 11] | 0.362 | 0.00385 | 0.4251 (μg/mL)h |  | 
CCN(CC)c1ncc(N(CC2CC2)S(=O)(=O)c2ccc(F)cc2)c(N[C@@H](Cc2ccc(OC(=O)N(C)C)cc2)C(=O)O)n1 [Example 14, 2-{2-diethylamino-5-[(4-fluorobenzenesulfonyl)cylclopropylmethylamino]pyrimidin-4-ylamino}-3-(4-dimethylcarbamoyl-oxyphenyl)propionic acid] | 0.0636 | 0.00159 | 0.7164 (μg/mL)h |  | 
CCN(CC)c1ncc(N(C)S(=O)(=O)c2cc(F)cc(F)c2)c(N[C@@H](Cc2ccc(OC(=O)N(C)C)cc2)C(=O)O)n1 [Example 15, 2-{2-diethylamino-5-[(3.5-difluorobenzenesulfonyl)methylamino]pyrimidin-4-ylamino}-3-(4-dimethylcarbamoyloxypheyl) propionic acid] | 0.205 | 0.00151 | 0.2098 (μg/mL)h |  | 
CCN(CC)c1ncc(N(CC)S(=O)(=O)c2cc(F)cc(F)c2)c(N[C@@H](Cc2ccc(OC(=O)N(C)C)cc2)C(=O)O)n1 [Example 16, 2-{2-diethylamino-5-[(3.5-difluorobenzenesulfonyl)ethylamino]pyrimidin-4-ylamino}-3-(4-dimethylcarbamoyloxyphenyl) propionic acid] | 0.108 | 0.00167 | 0.1721 (μg/mL)h |  | 
CCN(CC)c1ncc(N(C)S(=O)(=O)c2ccc(F)cc2F)c(N[C@@H](Cc2ccc(OC(=O)N(C)C)cc2)C(=O)O)n1 [Example 17] | 0.0396 | 0.00165 | 1.0075 (μg/mL)h |  | 
CCN(CC)c1ncc(N(CC)S(=O)(=O)c2ccc(F)cc2F)c(N[C@@H](Cc2ccc(OC(=O)N(C)C)cc2)C(=O)O)n1 [Example 18] | 0.0403 | 0.00322 | 0.2578 (μg/mL)h |  | 
CCN(CC)c1ncc(N(C)S(=O)(=O)c2cc(Cl)cc(Cl)c2)c(N[C@@H](Cc2ccc(OC(=O)N(C)C)cc2)C(=O)O)n1 [Example 19] | 0.133 | 0.00531 | 0.0697 (μg/mL)h |  | 
CCN(CC)c1ncc(N(CC)S(=O)(=O)c2cc(Cl)cc(Cl)c2)c(N[C@@H](Cc2ccc(OC(=O)N(C)C)cc2)C(=O)O)n1 [Example 20] | 0.119 | 0.00782 | 0.0536 (μg/mL)h |  | 
CCCN(c1cnc(N(CC)CC)nc1NC(Cc1ccc(OC(=O)N(C)C)cc1)C(=O)O)S(=O)(=O)c1ccc(F)cc1 (stereo not drawn) [Example 21, 2-{2-diethylamino-5-[(4-fluorobenzenesulfonyl)-n-propylamino]pyrimidin-4-ylamino}-3-(4-dimethylcarbamoyloxyphenyl) propionic acid] | 0.649 | 0.00509 | 0.6321 (μg/mL)h |  | 
CCN(CC)c1ncc(N(CC(C)C)S(=O)(=O)c2ccc(F)cc2)c(N[C@@H](Cc2ccc(OC(=O)N(C)C)cc2)C(=O)O)n1 [Example 23, 2-{2-diethylamino-5-[(4-fluorobenzenesulfonyl)isobotylamino]pyrimidin-4-ylamino}-3-(4-dimethylcarbamoyloxyphenyl)propionic acid] | 0.117 | 0.00634 | 0.413 (μg/mL)h |  | 
CCCCN(c1cnc(N(CC)CC)nc1NC(Cc1ccc(OC(=O)N(C)C)cc1)C(=O)O)S(=O)(=O)c1ccc(F)cc1 (stereo not drawn) [Example 24, 2-{2-diethylamino-5-[(4-fluorobenzenesulfonyl)-n-butylamino]pyrimidin-4-ylamino}-3-(4-dimethylcarbamoyloxyphenyl)propionic acid] | 0.0428 | 0.00476 | 0.4983 (μg/mL)h |  | 
CCN(CC)c1ncc(N(C)S(=O)(=O)c2cc(F)ccc2F)c(NC(Cc2ccc(OC(=O)N(C)C)cc2)C(=O)O)n1 (stereo not drawn) [Example 25] |  |  | 0.4559 (μg/mL)h | 6.72 (≈ 11.1 µM) | 0.006 (≈ 0.00989 µM)
CCN(CC)c1ncc(N(CC)S(=O)(=O)c2cccc(F)c2F)c(NC(Cc2ccc(OC(=O)N(C)C)cc2)C(=O)O)n1 (stereo not drawn) [Example 26, 2-{2-diethylamino-5-[(2.3-difluorobenzenesulfonyl)ethylamino]pyrimidin-4-ylamino}-3-(4-dimethylcarbamoyloxyphenyl) propionic acid] |  |  | 0.3392 (μg/mL)h | 0.01848 (≈ 0.0298 µM) | 0.001 (≈ 0.00161 µM)
